A word on the IC50: it is the concentration at which inhibition is half-maximal.

Like-named read-outs stand apart in the source and are kept apart here. A value given as a limit tells only on which side of the number the result lay.

The values that follow come from PMC13126685, “Targeting Highly Reactive Oxygen Species (hROS) for Prodrug Activation through a Cascade Reaction with Kinetic Tunability (CReKT) to Effect Linker Cleavage” (Journal of Medicinal Chemistry, 2026).

Data set [1] in a line: Cyclization kinetics of model thioethers and sulfoxides by RP-HPLC. The class given is physicochemical. The settings on record: for cyclization, result in words: 200 μM in PBS/DMSO (98:2); for cyclization, result in words / half-life at 200 μM: 37 °C, pH 7.4; for half-life at 200 μM: PBS, pH 7.4, 200 μM in PBS/DMSO (98:2). As for the experimental part:
The basic premise of this ROS-sensitive prodrug strategy relies on two properties: (1) the substantial rate enhancement of the cyclization/condensation reaction after oxidation and (2) the ability for ROS to oxidize a thioether to sulfoxide rapidly, which we have recently extensively studied. To examine the first aspect, we studied the rate of cyclization of the thioethers (3a–3g) and sulfoxides (4a–4g) using RP-HPLC (Figure and Figures S1–S5). Briefly, 200 μM thioether or sulfoxide was incubated in PBS (containing 2% DMSO) at 37 °C. Aliquots of the reaction solution were sampled at designated time points for examination of the reaction kinetic profiles. As representative examples, the cases of thioether-sulfoxide pairs 3 a /4a (EWG: −CN), 3 e /4e (EWG: −CONH2), and 3 f /4f (EWG: −CONHC3H7) are described (Figure ). […] As a subsequent step, we were interested in the ability to tune the reaction kinetics and the magnitude of the reaction rate separation between the thioether and sulfoxide analogs. We are especially interested in searching for systems that offer a high degree of separation in reaction kinetics before and after thioether oxidation.
First, 10 mM stock solutions of compound 3 or 4 were prepared in DMSO. […] The resultant solution was kept at 37 °C. […] Either gradient method A or B was used to monitor the reaction.

The test system of another data set is RS4;11 cells. Briefly: Cytotoxicity, CCK-8 assay. The class given is cell-based. The settings on record: Homo sapiens, RS4-11, 72 h. As for the experimental part: To conduct this set of experiments, a 96-well plate (8 × 12) was used. First, RS4;11 cells were seeded in a 96-well plate 1 day before the experiment (RPMI-1640, containing 10% FBS and 1% PNS). Then, the cells were incubated with different concentrations of compounds with or without the stimulant. Specifically, the final concentrations of compounds were 0.1 pM–100 μM with or without H2O2 (25 μM) stimulation. The plate containing cells were incubated for 72 h at 37 °C with 5% CO2. The cell viability was tested using the CCK-8 assay. Specifically, after 72 h of incubation, 10 μL of the CCK-8 assay reagent was added to each well. Then, the plate was further incubated for 2 h. After that, the plate was gently shaken for 1 min, and then absorbance was recorded at 450 nm. The percentage cell viability was calculated using the following formula: cell viability (%) = ((A 450 of treated wells – A 450 of control wells)/(A 450 of no treatment wells – A 450 of control wells)) × 100. The experiment was conducted in triplicates.
For orientation: Formazan colour is commonly taken as a measure of viable cells.

Data set [2] can be described thus: Drug release / stability of drug conjugates in buffer in the absence of ROS (RP-HPLC). The class given is physicochemical. The settings on record: 100 μM, 37 °C. As for the experimental part:
Cellular compartments can have slightly different pH.
To monitor drug release in the absence of ROS, the same procedure of the model compound was followed with a small change of stock solution solvent. For drug conjugates 12, DMF was used to prepare the stock solution. Briefly, a 10 mM stock solution of the drug-conjugated compound was prepared in DMF. […] The resultant solution was kept at 37 °C.

In the next data set the test system is RAW264.7 cells. Briefly: Intracellular ROS detection using DCFH-DA fluorescent probe. In kind it is cell-based. Conditions: 10 μM DCFH-DA, PMA 2 μM or LPS 2 μg/mL, 4 h, λex 495 nm, λem 530 nm.
Data set [3] can be described thus: ROS-triggered drug release from drug conjugates after oxidation by NaOCl (RP-HPLC). Conditions: 100 μM conjugate, 150 μM NaOCl, 37 °C, pH 7.4, 20 min.
Experimental: Specifically, to study drug release after oxidation by NaOCl, 100 μM of Flox-CReKT 12a was incubated with 150 μM sodium hypochlorite (NaOCl) in PBS (containing 1% DMF) under near-physiological conditions (Figure ). The reaction progress was monitored by RP-HPLC, where 20 μL of the incubated mixture was sampled and analyzed at designated time points (Figure ). Drug release t 1/2 was calculated by plotting the peak area of Flox released against time (Figure a). […] Specifically, oxidation of Flox-CReKT conjugate 12a is designed to lead to sulfoxide analogue 13a, which undergoes cyclization to release the Flox with the formation of the cyclized byproduct (6a) (Figure ).
We used the same protocol as discussed in the previous section of ROS-sensitive drug release to study the effect of pH. […] Furthermore, we used either a citrate- or PBS-based buffer to test the effect of pH on the oxidation step.
To monitor the drug release in the presence of ROS, drug conjugate 12 was incubated with ROS under near-physiological conditions. First, a 10 mM stock solution of the drug conjugate was prepared in DMF. Then, 10 μL was taken from the stock solution and added to 975 μL of the buffer. Then, 15 μL of 10 mM ROS solution was added to the solution. The resultant solution was kept at 37 °C. At different time points, 20 μL was taken from the reaction mixture and injected into HPLC.
On the set-up of data set [4]: method as in number not shown in text. The settings on record: ref number not shown in text; cited from earlier work.
The mark [5] stands for this setting: read-out: t 1/2 (thioether) (3a–g), cyclization (converted).
Setting [6] is: read-out: t 1/2 (sulfoxide) (4a–g), cyclization (converted).

Text for RAW264.7 cells: To correlate the intracellular drug release, we also studied intracellular ROS formation upon stimulation with LPS or PMA or using RAW264.7 cells. We chose one of the widely used fluorescent probes, DCFH-DA, which is the diester version of DCFH capable of cellular penetration. − Subsequent hydrolysis of the ester groups would lead to DCFH, which is not readily cell membrane permeable and thus is trapped intracellularly. […] Similar to the intracellular payload release studies, we used RAW264.7 cells for intracellular ROS determination work. Briefly, 10 μM of DCFH-DA was incubated with and without LPS/PMA. Specifically, three groups were tested with the first being 10 μM of DCFH-DA only, the second being 10 μM of DCFH-DA and 2 μg/mL of LPS, and the third being 10 μM of DCFH-DA and 2 μM of PMA. The cells were incubated for 4 h before fluorescence measurements using a plate reader (λex 495 nm and λem 530 nm). […] Working solutions were prepared by dilution in DMEM (Fluorobright DMEM, containing 1% PNS). DCFH-DA (10 μM) was prepared by adding 4 μL of 10 mM DCFH-DA in 3.996 mL of media. DCFH-DA (10 μM) and LPS (2 μg/mL) were prepared by adding 4 μL of 10 mM DCFH-DA and 4 μL of 2 μg/μL of LPS in 3.994 mL of media. […] Subsequently, the plate was incubated 4 h before fluorescence measurements using a plate reader (λex 495 nm and λem 530 nm). […]

Consider `COC(=O)c1ccccc1SCC(=O)O` [3g, 2-((2-(Methoxycarbonyl)phenyl)thio)acetic Acid], for which the “cyclization, result in words” value in data set [1] was “cyclization did not happen”. For the same compound, the half-life at 200 μM in data set [1] (setting [5]) was more than 48 h.

Take `CCCNC(=O)CSc1ccccc1C(=O)O[C@H]1C[C@H](n2cc(F)c(=O)[nH]c2=O)O[C@@H]1CO` [12f, (2R,3S,5R)-5-(5-Fluoro-2,4-dioxo-3,4-dihydropyrimidin-1(2H)-yl)-2-(hydroxymethyl)tetrahydrofuran-3-yl 2-((2-Oxo-2-(propylamino)ethyl)thio)benzoate]: the results for the IC50 in the data set on RS4;11 cells (+ 25 μM H2O2) and in the data set with RS4;11 cells (without H2O2) were 202 ± 3 nM and 197 ± 3 nM, respectively. The “stability in the absence of ROS for up to 72 h” value in data set [2] (pH 7.4, 72 h) was “remained intact”.

On to lipopolysaccharides [LPS], for which, in the data set with RAW264.7 cells, the “fluorescence intensity of DCFH-DA probe upon stimulation (intracellular ROS)” value was “marginal increase”.

Consider `COC(=O)c1ccccc1[S+]([O-])CC(F)(F)F` (stereo not drawn) [4b, Methyl 2-((2,2,2-Trifluoroethyl)sulfiny)benzoate], for which, in data set [1], the “cyclization, result in words” value is recorded as “did not lead to cyclization”. Further, the half-life at 200 μM in data set [1] (setting [6]) was more than 48 h.

For the compound `COC(=O)C[S+]([O-])c1ccccc1C(=O)OC` (stereo not drawn) [4d, Methyl 2-((2-Methoxy-2-oxoethyl)sulfinyl)benzoate], the half-life at 200 μM in data set [1] (setting [6]) was 0.667 h.

With `COC(=O)c1ccccc1[S+]([O-])CC(=O)O` (stereo not drawn) [4g, 2-((2-(Methoxycarbonyl)phenyl)sulfinyl)acetic Acid], the “cyclization, result in words” value in data set [1] is on record as “cyclization did not happen”. In addition, the half-life at 200 μM in data set [1] (setting [6]) was more than 48 h.

For the compound `COC(=O)c1ccccc1[S+]([O-])CC#N` (stereo not drawn) [4a, Methyl 2-((Cyanomethyl)sulfinyl)benzoate], in data set [1] (setting [6]), the half-life at 200 μM is 0.667 h.

For the compound `COC(=O)CSc1ccccc1C(=O)OC` [3d, Methyl 2-((2-Methoxy-2-oxoethyl)thio)benzoate], the half-life at 200 μM in data set [1] (setting [5]) was 6 h.

On to `COC(=O)c1ccccc1SCC(F)(F)F` [3b, Methyl 2-((2,2,2-Trifluoroethyl)thio)benzoate], for which the “cyclization, result in words” value in data set [1] is reported as “did not lead to cyclization”. The half-life at 200 μM in data set [1] (setting [5]) was more than 48 h.

Regarding `COC(=O)c1ccccc1SCC#N` [3a, Methyl 2-((Cyanomethyl)thio)benzoate], in data set [1] (setting [5]), the half-life at 200 μM was 5 h.

As to `CCc1c2c(nc3ccc(OC(=O)c4ccccc4SCC(N)=O)cc13)-c1cc3c(c(=O)n1C2)COC(=O)[C@]3(O)CC` [14e, (S)-4,11-Diethyl-4-hydroxy-3,14-dioxo-3,4,12,14-tetrahydro-1H-pyrano[3′,4’:6,7]indolizino[1,2-b]quinolin-9-yl 2-((2-Amino-2-oxoethyl)thio)benzoate], the “SN-38 released within 24 h without oxidation” value in data set [2] (pH 7.4, 24 h) is recorded as “about 25%”.

For the compound `COC(=O)c1ccccc1SCC(=O)C(C)(C)C` [3c, Methyl 2-((3,3-Dimethyl-2-oxobutyl)thio)benzoate], the half-life at 200 μM in data set [1] (setting [5]) was 10 h.

In the case of `CCCNC(=O)CSc1ccccc1C(=O)OC` [3f, Methyl 2-((2-Oxo-2-(propylamino)ethyl)thio)benzoate], the “cyclization, result in words” value in data set [1] is reported as “no cyclization”. Also, the “cyclization after 5 days, result in words” value in data set [1] (near-physiological conditions, 5 days) is on record as “no significant cyclization”.

As for `COC(=O)c1ccccc1SCC(N)=O` [3e, Methyl 2-((2-Amino-2-oxoethyl)thio)benzoate], the half-life at 200 μM in data set [1] (setting [5]) is more than 48 h.

Take `CCCNC(=O)C[S+]([O-])c1ccccc1C(=O)OC` (stereo not drawn) [4f, Methyl 2-((2-Oxo-2-(propylamino)ethyl)sulfinyl)benzoate]: the half-life at 200 μM in data set [1] (setting [6]) was 7.5 h.

Regarding `N#CCSc1ccccc1C(=O)OC1CC(n2cc(F)c(=O)[nH]c2=O)OC1CO` [12a, (2S,3R,5S)-5-(5-Fluoro-2,4-dioxo-3,4-dihydropyrimidin-1(2H)-yl)-2-(hydroxymethyl)tetrahydrofuran-3-yl 2-((Cyanomethyl)thio)benzoate], in data set [3], the “Flox released at the 20 min time point” value is on record as 90%.

As to `CCCCCCCCCCCCCC(=O)O[C@@H]1[C@@H](C)[C@@]2(O)[C@@H](C=C(CO)C[C@]3(O)C(=O)C(C)=C[C@@H]23)[C@@H]2C(C)(C)[C@]12OC(C)=O` [PMA, phorbol 12-myristate 13-acetate], in the data set on RAW264.7 cells, the “fluorescence intensity of DCFH-DA probe upon stimulation (intracellular ROS)” value was “significantly higher fluorescence intensity”.

Consider `COC(=O)c1ccccc1[S+]([O-])CC(N)=O` (stereo not drawn) [4e, Methyl 2-((2-Amino-2-oxoethyl)sulfinyl)benzoate], for which the half-life at 200 μM in data set [1] (setting [6]) is approximately 2.17 h.

As for `COC(=O)c1ccccc1[S+]([O-])CC(=O)C(C)(C)C` (stereo not drawn) [4c, Methyl 2-((3,3-Dimethyl-2-oxobutyl)sulfinyl)benzoate], the half-life at 200 μM in data set [1] (setting [6]) is 1.5 h.

On to `O=C(O)c1ccccc1C1c2cc(Cl)c(O)cc2Oc2cc(O)c(Cl)cc21` [DCFH], for which the “second-order rate constant of reaction with hypochlorite” value in data set [4] is 580 ± 18 M^–1 s^–1.
